Columns and labels:
[1] = test system: histamine stimulated parietal cell; test: Isolated parietal cell assay, inhibition of 14C-aminopyrine accumulation, histamine stimulated; type: cell-based, rabbit; conditions: Oryctolagus cuniculus, 20 min, Example 48, 37° C., read-out: IC50 vhist (inhibition of 14C-AP accumulation in histamine stimulated parietal cell)
Description: (§1) Isolated Parietal Cell Assay
(§2) The isolated parietal cell assay was conducted using the procedures of Batzri, S. et al., Biochemica et Biophysica Acta 508, 328 (1978) and Soll, A. H. Am. J. Physiol. 238, G366 (1980). Basically, parietal cells were isolated from the fundic mucosa of rabbit stomachs by a four-stage collagenase digestion process. The supernatant fractions from the last two stages of this process contain the individual parietal cells. This cell suspension was centrifuged and reconstituted in a modified Hank's buffer to contain 1-2×10^6 cells/ml. […] This accumulation was stimulated by histamine and was blocked by H2 antagonists. The cells were incubated with 0.4-0.5×10^6 cpm ^14 C-AP, with various concentrations of histamine as a stimulant, 1×10^-5 M isobutylmethylxanthine, and the test compound added in a 20 μl volume of buffer or DMSO. The flasks were incubated in a shaking water bath at 37° C. for 20 minutes. Two aliquots were then taken from each flask and cell pellets were collected by centrifugation. The pellets were solubilized with Protosol (New England Nuclear) and radioactivity determined by liquid scintillation spectrometry. Data is presented as the IC50 vhist, the concentration of compound required to inhibit ^14 C-AP accumulation in the histamine stimulated parietal cell by 50%. When dibutyryl cAMP was used to stimulate the cells instead of histamine, a similar inhibition of ^14 C-AP accumulation was measured and the data are presented as the IC50 vcAMP, the concentration required to inhibit ^14 C-AP accumulation in the cAMP stimulated parietal cells by 50%.

[2] = test system: cAMP stimulated parietal cells; test: Isolated parietal cell assay, inhibition of 14C-aminopyrine accumulation, dibutyryl cAMP stimulated; type: cell-based, rabbit; conditions: Oryctolagus cuniculus, 20 min, Example 48, 37° C., read-out: IC50 vcAMP (inhibition of 14C-AP accumulation in cAMP stimulated parietal cells)
Description: as §1, §2

[3] = target: T1, parietal cell H^+ K^+ ATPase (Oryctolagus cuniculus, UniProt P27112); test: Inhibition of parietal cell H+ K+ ATPase; type: biochemical, New Zealand white rabbits; conditions: Example 49; for inhibition at 100 µM: @ 10^-4 M, read-out: % Inhibition at Concentration (H+ K+ ATPase); for IC50: given as "50% @ x μM", read-out: % Inhibition at Concentration (H+ K+ ATPase): concentration given for 50% inhibition
T1 construct: determined in fundic mucosa from New Zealand white rabbits which were homogenized; from tissue; host or cells: fundic mucosa of New Zealand white rabbits, homogenized; membrane protein
Description: Inhibition of Parietal Cell H^+ K^+ ATPase
The activity was measured in a 1 ml incubation volume containing 50 mM Tris pH 7.4, 2 mM MgCl2, 2 mM Na2 ATP, with or without 20 mM KCl and vehicle control (dimethylsulfoxide) or test compound added in a 0.02 ml volume. Typically, 20-50 μg membrane protein was added and the tubes were preincubated with test compound for 10 minutes at 37° C. Substrate, Na2 ATP, was then added and the tubes were incubated for another 15 minutes at 37° C. The reaction was stopped by the addition of 1 ml 14% trichloroacetic acid and the samples were centrifuged at 2,000 xg for 10 minutes. The amount of inorganic phosphate present in an aliquot of supernatant was determined. H^+ K^+ ATPase activity was determined after correcting for the basal (Mg^++ only) enzyme activity present in the membrane preparation.

[4] = test system: acid output; test: Gastric secretion, acid output in pylorus ligated rats; type: in vivo, male Charles River Sprague Dawley derived rats; conditions: Example 50, i.d. or s.c., four hours after pylorus ligation, compared to control; for response vs control in vivo at 40 mg/kg / response vs control in vivo at 20 mg/kg: Rattus norvegicus, 4 h, read-out: % Acid Secreted at mpK; for response vs control in vivo at 40 mg/kg: @ 40 mpK; for response vs control in vivo at 20 mg/kg: @ 20 mpK; for % Acid Secreted at mpK: @ 10 mpK
Description: The inhibitory activity of the compounds on acid output was tested using pylorus ligation in a modification of the procedure of Shay, H. et al., Gastroenterology 26, 906 (1954). Basically, male Charles River Sprague Dawley derived rats weighing 150-300 grams were deprived of food but not water for 18-24 hours prior to use. Water was withheld during the experiment, however. The rats were weighed, anesthetized with ether and the pylorus ligated according to the method of Shay et al., supra. Treatment or vehicle control was then administered intraduodenally (i.d.) or subcutaneously (s.c.). Rats were housed two/cage and sacrificed with CO2 four hours after ligation. The stomachs were removed, rinsed, and contents emptied into a graduated centrifuge tube. The tubes were centrifuged, the volume of gastric juice recorded, and any samples obviously contaminated by feces, food or blood were eliminated. A 1 ml aliquot of gastric juice was titrated with 0.1N NaOH to a pH of 7.0-7.4. The volume of gastric juice secreted, the acid concentration, and the product of the volume times the concentration, i.e., the total amount of acid secreted, were measured.

T1 sequence (P27112 2-1035 limits assumed): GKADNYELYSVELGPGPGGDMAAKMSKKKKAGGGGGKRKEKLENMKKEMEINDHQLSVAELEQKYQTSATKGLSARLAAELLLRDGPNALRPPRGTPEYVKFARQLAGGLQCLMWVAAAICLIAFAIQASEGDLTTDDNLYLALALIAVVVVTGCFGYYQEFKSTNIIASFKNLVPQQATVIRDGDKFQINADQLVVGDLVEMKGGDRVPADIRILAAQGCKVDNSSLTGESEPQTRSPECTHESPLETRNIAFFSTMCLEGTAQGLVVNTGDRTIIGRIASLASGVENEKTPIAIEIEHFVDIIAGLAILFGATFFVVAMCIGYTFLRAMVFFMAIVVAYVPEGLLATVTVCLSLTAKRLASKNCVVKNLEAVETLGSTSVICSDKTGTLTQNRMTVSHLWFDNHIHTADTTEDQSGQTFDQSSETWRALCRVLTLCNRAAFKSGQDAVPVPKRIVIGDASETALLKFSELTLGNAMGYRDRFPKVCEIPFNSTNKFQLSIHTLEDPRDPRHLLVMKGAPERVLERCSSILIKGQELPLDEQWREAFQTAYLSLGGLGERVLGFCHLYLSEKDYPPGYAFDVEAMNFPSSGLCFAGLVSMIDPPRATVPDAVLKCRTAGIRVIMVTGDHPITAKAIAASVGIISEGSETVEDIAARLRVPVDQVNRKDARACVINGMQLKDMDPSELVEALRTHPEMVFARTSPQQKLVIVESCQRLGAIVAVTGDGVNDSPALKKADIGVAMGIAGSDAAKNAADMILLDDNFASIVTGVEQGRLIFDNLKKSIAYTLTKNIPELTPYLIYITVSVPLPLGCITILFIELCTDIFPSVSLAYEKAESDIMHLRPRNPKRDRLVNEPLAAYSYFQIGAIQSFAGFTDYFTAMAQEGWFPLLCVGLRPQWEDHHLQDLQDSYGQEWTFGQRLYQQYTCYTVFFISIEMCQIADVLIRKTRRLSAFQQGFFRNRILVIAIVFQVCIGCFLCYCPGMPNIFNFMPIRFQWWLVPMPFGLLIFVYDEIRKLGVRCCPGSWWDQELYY
T1 sequence (P18597 whole entry partner): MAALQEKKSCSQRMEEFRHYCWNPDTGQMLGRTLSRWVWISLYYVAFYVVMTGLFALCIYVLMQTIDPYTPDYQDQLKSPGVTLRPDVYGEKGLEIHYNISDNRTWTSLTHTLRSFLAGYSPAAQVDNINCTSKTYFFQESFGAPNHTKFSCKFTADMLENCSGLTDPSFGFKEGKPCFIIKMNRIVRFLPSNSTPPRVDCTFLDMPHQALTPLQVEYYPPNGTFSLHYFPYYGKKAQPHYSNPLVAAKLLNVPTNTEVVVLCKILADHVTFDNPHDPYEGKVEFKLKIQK

SMILES	IC50 [1]	IC50 [2]	inhibition at 100 µM [3]	response vs control in vivo at 40 mg/kg [4]	IC50 [3]	response vs control in vivo at 20 mg/kg [4]	% Acid Secreted at mpK [4]
CCCCN(CCCC)CCCCOc1ccc(/C=C/c2nc3ccccc3o2)cc1 [Example 18]	180 nM	< 10000 nM	–	–	20 µM	–	14%
C(=C\c1nc2ccccc2o1)/c1ccc(OCCCCN2CCCCC2)cc1 [Example 19]	170 nM	330 nM	–	–	40 µM	42%	–
CCCN(CCC)CCCCOc1ccc(/C=C/c2nc3ccccc3o2)cc1 [Example 20]	390 nM	110 nM	–	–	21 µM	90%	59%
C(=C\c1nc2ccccc2o1)/c1ccc(OCCCCn2ccnc2)cc1 [Example 21]	270 nM	330 nM	–	–	30 µM	14%	–
CCN(CC)CCCCOc1ccc(/C=C/c2nc3ccccc3o2)cc1 [Example 22]	80 nM	120 nM	–	–	74 µM	31%	–
C(=C\c1nc2ccccc2o1)/c1ccc(OCCCCN2CCCC2)cc1 [Example 23, (E)-2-[2-(4-Pyrrolinobutoxyphenyl)ethenyl]benzoxazole]	170 nM	240 nM	–	24%	84 µM	–	–
C(=C\c1nc2ccccc2o1)/c1ccc(OCCCCCn2ccnc2)cc1 [Example 24]	280 nM	230 nM	–	–	13 µM	45%	–
CCCN(CCC)CCCCOc1cccc(/C=C/c2nc3ccccc3s2)c1 [Example 26, (E)-2-[2-(3-Dipropylaminobutoxyphenyl)ethenyl]benzothiazole]	90 nM	180 nM	–	80%	19 µM	42%	–
C(=C\c1nc2ccccc2s1)/c1cccc(OCCCCn2ccnc2)c1 [Example 27]	110 nM	210 nM	–	83%	4.7 µM	42%	–
CCCN(CCC)CCCCOc1ccc(/C=C/c2nc3ccccc3s2)cc1 [Example 38]	30 nM	120 nM	–	93%	21 µM	–	–
CCN(CC)CCCCOc1ccc(/C=C/c2nc3ccccc3s2)cc1 [Example 41]	180 nM	350 nM	–	–	44 µM	52%	–
C(=C\c1nc2ccccc2s1)/c1ccc(OCCCCN2CCCC2)cc1 [Example 42, (E)-2-[2-(4-Pyrrolidinobutoxyphenyl)ethenyl]benzothiazole]	160 nM	260 nM	–	20%	17 µM	–	–

Continued, in another order:

IC50 [1]	IC50 [2]	inhibition at 100 µM [3]	SMILES	response vs control in vivo at 40 mg/kg [4]	IC50 [3]	response vs control in vivo at 20 mg/kg [4]	% Acid Secreted at mpK [4]
320 nM	980 nM	20%	CCN(CC)CCCOc1ccc(/C=C/c2nc3ccccc3o2)cc1 [Example 11, (E)-2-[2-(4-Diethylaminopropoxyphenyl)ethenyl]benzoxazole]	54%	–	–	–
260 nM	150 nM	–	C(=C\c1nc2ccccc2o1)/c1ccc(OCCCN2CCCCC2)cc1 [Example 12, (E)-2-[2-[4-(3-Piperidinopropoxy)phenyl]ethenyl]benzoxazole]	88%	27 µM	–	–
600 nM	800 nM	43%	COc1ccccc1N1CCN(CCCOc2ccc(/C=C/c3nc4ccccc4o3)cc2)CC1 [Example 14]	–	–	8%	–
260 nM	340 nM	–	CCCCN(CCCC)CCCOc1ccc(/C=C/c2nc3cc(C)ccc3o2)cc1 [Example 15, (E)-2-[2-(4-Dibutylaminopropoxyphenyl)ethenyl]-5-methylbenzoxazole]	88%	27 µM	–	–
80 nM	50 nM	–	CCCCN(CCCC)CCCOc1ccc(/C=C/c2nc3ccc(OC)cc3o2)cc1 [Example 16, (E)-2-[2-(4-Dibutylaminopropoxyphenyl)ethenyl]-6-methoxybenzoxazole]	64%	26 µM	–	–
260 nM	540 nM	43%	CCCCN(CCCC)CCOc1ccc(/C=C/c2nc3ccccc3o2)cc1 [Example 17, (E)-2-[2-(4-Dibutylaminoethoxyphenyl)ethenyl]benzoxazole]	–	–	43%	–
200 nM	330 nM	61%	CCCCN(CCCC)CCCOc1cccc(/C=C/c2nc3ccccc3s2)c1 [Example 25]	–	–	40%	–
21000 nM	450 nM	46%	CCCCN(CCCC)CCCOc1ccc(/C=C/c2nc3ccccc3s2)cc1 [Example 28, (E)-2-[2-(4-Dibutylaminopropoxyphenyl)ethenyl]benzothiazole]	–	–	49%	25%
1700 nM	3400 nM	33%	COc1ccccc1N1CCN(CCCOc2ccc(/C=C/c3nc4ccccc4s3)cc2)CC1 [Example 31]	–	–	11%	–
290 nM	530 nM	52%	CCCCN(CCCC)CCCOc1ccc(/C=C/c2nc3cc(C)ccc3s2)cc1 [Example 34, (E)-2-[2-(4-Dibutylaminopropoxyphenyl)ethenyl]-5-methylbenzothiazole]	–	–	14%	–
260 nM	460 nM	–	CCCCN(CCCC)CCCOc1ccc(/C=C/c2nc3ccc(OC)cc3s2)cc1 [Example 35, (E)-2-[2-(4-Dibutylaminopropoxyphenyl)ethenyl]-6-methoxybenzothiazole]	–	60 µM	31%	–
400 nM	500 nM	52%	CCCCN(CCCC)CCCOc1ccc(/C=C/c2nc3cc(Cl)ccc3s2)cc1 [Example 36, (E)-2-[2-(4-Dibutylaminopropoxyphenyl)ethenyl]-5-chlorobenzothiazole]	26%	–	–	–
430 nM	600 nM	43%	CCCCN(CCCC)CCOc1ccc(/C=C/c2nc3ccccc3s2)cc1 [Example 37, (E)-2-[2-(4-Dibutylaminoethoxyphenyl)ethenyl]benzothiazole]	–	–	14%	–
390 nM	460 nM	19%	C(=C\c1nc2ccccc2s1)/c1ccc(OCCn2ccnc2)cc1 [Example 39]	32%	–	–	–
210 nM	140 nM	67%	CCCN(CCC)CCCOc1ccc(-c2nc3ccccc3s2)cc1 [Example 44, 2-(4-Dipropylaminopropoxyphenyl)benzothiazole]	–	–	42%	–

Reference: patent US4861897A, “2-Aryloxyalkylaminobenzoxazoles and 2-aryloxyalkylaminobenzothiazoles” (Ortho Pharmaceutical Corporation, priority 1987, dated 1989)
